Measured values reported in patent US20060188938A1, “Compounds for inhibiting beta-amyloid production and methods of identifying the compounds” (priority 2005, published 2006).

Key:
[1] = system: β-amyloid production by 7W WT APP751 CHO cells; assay: Measurement of Aβ1-40 and Aβ1-42 by ELISA in culture medium (Example 1, calcium channel blockers); format: cell-based, Chinese hamster
Protocol: Chinese hamster ovary (CHO) cells, stably transfected with human APP751 (7W WT APP751 CHO cells) were used. See, e.g., Koo and Squazzo, J. Biol. Chem., Vol. 269, Issue 26, 17386-17389, July, 1994. The cells were maintained in DMEM medium supplemented with 10% fetal bovine serum and 1× mixture of penicillin/streptomycin/fungizone/glutamine mixture (Cambrex, MD) geneticin as selecting agent in 75 cm^2 cell culture flasks.
The 7W WT APP751 CHO cells were plated in 24-well cell culture plates in quadruplicate, containing 1 ml of culture medium, and treated with various calcium channel blocker compounds for 4 hours, 24 hours or 48 hours at 37° C. and 5% CO2. All test compounds were diluted in dimethyl sulfoxide (DMSO) before being added to the cultured confluent 7W WT APP751 CHO cells. The culture medium was collected and diluted 5-fold for the 4 hours assay and 50-fold for the 24 hour assay before being assayed by ELISAs for Aβ1-40 and Aβ1-42, respectively. Concentrations of Aβ1-40 and Aβ1-42, expressed in pg/ml, were determined using commercially available ELISAs (Biosource, CA) in a colorimetric assay using labeled antibodies detected spectrophotometrically.
G-sec Inhib XIX, SKF 96365, 2-APB, felodipine, FPL, clotrimazole, tetrandrine, R24571, and econazole are available, as Calbiochem products from EMD Biosciences, Inc., La Jolla, Calif.; nilvadipine, nitrendipine and amlodipine (amlodipine besylate) are available, e.g., from Fujisawa, Osaka, Japan; thapsigargin, BAPTA-AM and TA9 (Tyrphostin A9) are available, e.g., as a Sigma product from Sigma-Aldrich Corp., St. Louis, Mo.; and felodipine, diltiazem, S(−)Bay K8644, R(+)Bay K8644, MRS 1845, SR 33805, loperamide, and isradipine are available from Tocris Cookson Inc., Ellisville, Mo.

[2] = 30 μM, cells plated at low density, 24 hours (FIG. 1C)
[3] = 30 μM, cells plated at low density, 48 hours (FIG. 1D)

COc1ccc2cc1Oc1ccc(cc1)C[C@H]1c3cc(c(OC)cc3CCN1C)Oc1c(OC)c(OC)cc3c1[C@H](C2)N(C)CC3 [tetrandine, tetrandrine]
concentration of Aβ1-40 compared to controls ([1]; 5 μM (FIG. 4)): significantly decreased
concentration of total β-amyloid compared to controls ([1]; 5 μM (FIG. 4)): significantly decreased
concentration of Aβ1-40 compared to controls ([1]; 10 μM (FIG. 4)): significantly decreased
concentration of total β-amyloid compared to controls ([1]; 10 μM (FIG. 4)): significantly decreased
concentration of Aβ1-40 compared to controls ([1]; 20 μM (FIG. 4)): significantly decreased
concentration of total β-amyloid compared to controls ([1]; 20 μM (FIG. 4)): significantly decreased
concentration of Aβ1-40 compared to controls ([1]; 30 μM (FIG. 4)): significantly decreased
concentration of total β-amyloid compared to controls ([1]; 30 μM (FIG. 4)): significantly decreased

COC(=O)C1=C(C#N)NC(C)=C(C(=O)OC(C)C)C1c1cccc([N+](=O)[O-])c1 (stereo not drawn) [nilvadipine]
concentration of Aβ1-40 compared to controls ([1]; 30 μM (FIG. 3)): significantly decreased
concentration of total β-amyloid compared to controls ([1]; 30 μM (FIG. 3)): significantly decreased
concentration of Aβ1-40 compared to controls ([1]; 30 μM, 24 hours (FIG. 1B)): significantly decreased
concentration of Aβ1-40 compared to controls [1, 2]: significantly decreased
concentration of Aβ1-40 compared to controls [1, 3]: significantly decreased

Clc1ccccc1C(c1ccccc1)(c1ccccc1)n1ccnc1 [clotrimazole]
concentration of Aβ1-40 compared to controls ([1]; 20 μM (FIG. 4)): significantly decreased
concentration of total β-amyloid compared to controls ([1]; 20 μM (FIG. 4)): significantly decreased

CN(C)C(=O)C(CCN1CCC(O)(c2ccc(Cl)cc2)CC1)(c1ccccc1)c1ccccc1 [loperamide]
concentration of Aβ1-40 compared to controls ([1]; 30 μM (FIG. 4)): significantly decreased
concentration of Aβ1-42 compared to controls ([1]; 30 μM (FIG. 4)): significantly decreased
concentration of total β-amyloid compared to controls ([1]; 30 μM (FIG. 4)): significantly decreased

CCOC(=O)C1=C(C)NC(C)=C(C(=O)OC)C1c1cccc([N+](=O)[O-])c1 (stereo not drawn) [nitrendipine]
concentration of Aβ1-40 compared to controls ([1]; 30 μM (FIG. 3)): significantly decreased
concentration of total β-amyloid compared to controls ([1]; 30 μM (FIG. 3)): significantly decreased
concentration of Aβ1-40 compared to controls [1, 2]: significantly decreased
concentration of Aβ1-40 compared to controls [1, 3]: significantly decreased

CC(C)(C)c1cc(C=C(C#N)C#N)cc(C(C)(C)C)c1O [tyrphostin A9]
concentration of Aβ1-40 compared to controls ([1]; 20 μM (FIG. 2)): significantly decreased
concentration of Aβ1-42 compared to controls ([1]; 20 μM (FIG. 2)): significantly decreased
concentration of total β-amyloid compared to controls ([1]; 20 μM (FIG. 2)): significantly decreased

COCCOC(=O)C1=C(C)NC(C)=C(C(=O)OCCOC)C1c1ccccc1Cl [Example 10, Bis(2-methoxyethyl) 4-(2-chlorophenyl)-1,4-dihydro-2,6-dimethylpyridine-3,5-dicarboxylate]
melting point: 120 to 121 °C

CCOC(=O)C1=C(C)NC(C)=C(C(=O)OCC)C1c1cccc(Cl)c1Cl [Example 31, Diethyl 4-(2,3-dichlorophenyl)-1,4-dihydro-2,6-dimethylpyridine-3,5-dicarboxylate]
melting point: 125 to 126 °C

CC1=C(C(=O)OC(C)(C)C)C(c2ccc(C)cc2C)C(C(=O)OC(C)(C)C)=C(C)N1 [Example 55, Di-tert-butyl 1,4-dihydro-2,6-dimethyl-4-(2,4-dimethylphenyl)pyridine-3,5-dicarboxylate]
melting point: 197 to 198 °C

CCOC(=O)C1=C(C)NC(C)=C(C(=O)OCC)C1c1cccc(F)c1F [Example 38, Diethyl 4-(2,3-difluorophenyl)-1,4-dihydro-2,6-dimethylpyridine-3,5-dicarboxylate]
melting point: 161 to 162 °C

CC(=O)C1=C(C)NC(C)=C(C(C)=O)C1c1ccccc1Cl [Example 7, 4-(2-Chlorophenyl)-1,4-dihydro-2,6-dimethylpyridine-3,5-di(2-ethanone)]
melting point: 196 to 197 °C

CCOC(=O)C1=C(C)NC(C)=C(C(=O)OCC)C1c1cccc(Br)c1 [Example 24, Diethyl 4-(3-bromophenyl)-1,4-dihydro-2,6-dimethylpyridine-3,5-dicarboxylate]
melting point: 125 to 126 °C

CC1=C(C(=O)OC(C)(C)C)C(c2ccc(F)cc2)C(C(=O)OC(C)(C)C)=C(C)N1 [Example 52, Di-tert-butyl 4-(4-fluorophenyl)-1,4-dihydro-2,6-dimethylpyridine-3,5-dicarboxylate]
melting point: 149 to 150 °C

CC1=C(C(=O)OC(C)(C)C)C(c2ccccc2[N+](=O)[O-])C(C(=O)OC(C)(C)C)=C(C)N1 [Example 15, Di-tert-butyl 1,4-dihydro-2,6-dimethyl-4-(2-nitrophenyl)pyridine-3,5-dicarboxylate]
melting point: 159 to 161 °C

CC1=C(C(=O)OC(C)(C)C)C(c2ccccc2Br)C(C(=O)OC(C)(C)C)=C(C)N1 [Example 14, Di-tert-butyl 4-(2-bromophenyl)-1,4-dihydro-2,6-dimethylpyridine-3,5-dicarboxylate]
melting point: 162 to 164 °C

CC1=C(C(=O)OC(C)(C)C)C(c2ccc(Cl)cc2)C(C(=O)OC(C)(C)C)=C(C)N1 [Example 23, Di-tert-butyl 4-(4-chlorophenyl)-1,4-dihydro-2,6-dimethylpyridine-3,5-dicarboxylate]
melting point: 191.5 to 192.5 °C

COCC1=C(C(=O)OC)C(c2ccc(Br)cc2)C(C(=O)OC)=C(COC)N1 [Example 53, Dimethyl 4-(4-bromophenyl)-1,4-dihydro-2,6-bis(methoxymethyl)pyridine-3,5-dicarboxylate]
melting point: 162 to 163 °C

COCC1=C(C(=O)OC)C(c2ccccc2Cl)C(C(=O)OC)=C(COC)N1 [Example 17, Dimethyl 4-(2-chlorophenyl)-1,4-dihydro-2,6-bis(methoxymethyl)pyridine-3,5-dicarboxylate]
melting point: 137 to 138 °C

COC(=O)C1=C(C)NC(C)=C(C(=O)OC)C1c1ccccc1Cl [Example 8, Dimethyl 4-(2-chlorophenyl)-1,4-dihydro-2,6-dimethylpyridine-3,5-dicarboxylate]
melting point: 188 to 189 °C

C#CCN1C(C)=C(C(=O)OC)C(c2cccc([N+](=O)[O-])c2)C(C(=O)OCC)=C1C (stereo not drawn) [MRS 1845, N-propargylnitrendipine]
concentration of Aβ1-40 compared to controls ([1]; 30 μM (FIG. 3)): significantly decreased
concentration of total β-amyloid compared to controls ([1]; 30 μM (FIG. 3)): significantly decreased

COC(=O)C1=C(C)NC(C)=C(C(C)=O)C1c1ccccc1Cl (stereo not drawn) [Example 57, Methyl 5-acetyl-4-(2-chlorophenyl)-1,4-dihydro-2,6-dimethylpyridine-3-carboxylate]
melting point: 183 to 184 °C

Clc1ccc(C(c2ccc(Cl)cc2)[n+]2ccn(CC(OCc3ccc(Cl)cc3Cl)c3ccc(Cl)cc3Cl)c2)cc1.[Cl-] (stereo not drawn) [Example R24571, 1-[bis(p-chlorophenyl)methyl]-3-[2-(2,4-di-chloro-β-(2,4-dichlorobenzyl-oxy)phenethyl)]-imidazolium chloride]
concentration of Aβ1-40 compared to controls ([1]; 5 μM (FIG. 4)): significantly decreased
concentration of total β-amyloid compared to controls ([1]; 5 μM (FIG. 4)): significantly decreased

C=CCOC(=O)C1=C(C)NC(C)=C(C(=O)OCC=C)C1c1ccccc1Cl [Example 16, Diallyl 4-(2-chlorophenyl)-1,4-dihydro-2,6-dimethylpyridine-3,5-dicarboxylate]
melting point: 98 to 99 °C

CC1=C(C(=O)OC(C)(C)C)C(c2cc(Cl)ccc2Cl)C(C(=O)OC(C)(C)C)=C(C)N1 [Example 35, Di-tert-butyl 4-(2,5-dichlorophenyl)-1,4-dihydro-2,6-dimethylpyridine-3,5-dicarboxylate]
melting point: 181 to 183 °C

CCOC(=O)C1=C(C)NC(C)=C(C(=O)OCC)C1c1ccccc1I [Example 18, Diethyl 1,4-dihydro-4-(2-iodophenyl)-2,6-dimethylpyridine-3,5-dicarboxylate]
melting point: 173 to 174.5 °C

CC1=C(C(=O)OC(C)(C)C)C(c2cccc(F)c2)C(C(=O)OC(C)(C)C)=C(C)N1 [Example 50, Di-tert-butyl 4-(3-fluorophenyl)-1,4-dihydro-2,6-dimethylpyridine-3,5-dicarboxylate]
melting point: 178 to 179 °C

CCOC(=O)C1=C(C)NC(C)=C(C(=O)OCC)C1c1ccccc1F [Example 12, Diethyl 4-(2-fluorophenyl)-1,4-dihydro-2,6-dimethylpyridine-3,5-dicarboxylate]
melting point: 151 to 152.5 °C
